The text below walks through data of patent US10398786B2, “Therapeutic gene cocktail for heart regeneration” (Academia Sinica, priority 2015, dated 2019).

The subject of this assay is adult CMs of OSKM transgenic mice. Put plainly: doxycycline injection into OSKM transgenic mice, adult CMs isolated after two days. It counts as in vivo. Particulars: two days after doxycycline treatment. The protocol: Reverse transcription were completed following the protocol of SuperScript III Reverse-Transcriptase kit (Life Technology). SYBR Green Real-Time PCR master mixes were used to quantify each gene expression, and GAPDH were performed for normalization.
Adult ventricular CMs were isolated from male mice on a Langendorff apparatus. The hearts were removed from the anaesthetized mice after heparinization for 10 mins, and then were cannulated for retrograde perfusion with Ca^2+-free Tyrode solution (NaCl 120.4 mmol/L, KCl 14.7 mmol/L, KH2PO4 0.6 mmol/L, Na2HPO4 0.6 mmol/L, MgSO4 1.2 mmol/L, HEPES 1.2 mmol/L, NaHCO3 4.6 mmol/L, Taurine 30 mmol/L, BDM 10 mmol/L, Glucose 5.5 mmol/L).
After 3-minutes of perfusion, the solution mixed with Ca^2+-free Tyrode solution supplemented with collagenase B (0.4 mg/g body weight, Roche), collagenase D (0.3 mg/g body weight, Roche) and protease type XIV (0.05 mg/g body weight, Sigma-Aldrich) were used to digest the hearts. After digestion, the ventricles were cut from the cannula and teased into small pieces in the digestion solution neutralized by the Ca^2+-free Tyrode solution containing 10% FBS. Adult CMs were dissociated from the digested tissues by gentle pipetting and collected after removing the un-digested tissues by filtering through a nylon mesh of 250 μm pore size. […]

Each structure is given as a SMILES string.

As for `C[C@H]1c2cccc(O)c2C(=O)C2=C(O)[C@]3(O)C(=O)C(C(N)=O)=C(O)[C@@H](N(C)C)[C@@H]3[C@@H](O)[C@@H]21` [doxycycline], the “H3P+ population of adult CMs relative to control” value amounted to 2 ×.
